The results in this text go back to patent publication US8604042B2, “Bi-aryl meta-pyrimidine inhibitors of kinases” (TargeGen, Inc., priority 2005, dated 2013).

Where a name gives a salt, the structure may show the parent alone.

The assay concerns the target T1, recombinant JAK2 (Homo sapiens, UniProt O60674).
T1 construct: purchased Upstate Cell Signaling Solutions
The experiment in a line: IC50 value determinations for Jak2 kinase, luminescence-based kinase assay (Kinase-Glo). The assay is classed as biochemical. The conditions noted are these: Table 1. (In general: Kinase-Glo reads ATP consumption through a luciferase reaction.)

T1 sequence (O60674 808-1132 limits assumed): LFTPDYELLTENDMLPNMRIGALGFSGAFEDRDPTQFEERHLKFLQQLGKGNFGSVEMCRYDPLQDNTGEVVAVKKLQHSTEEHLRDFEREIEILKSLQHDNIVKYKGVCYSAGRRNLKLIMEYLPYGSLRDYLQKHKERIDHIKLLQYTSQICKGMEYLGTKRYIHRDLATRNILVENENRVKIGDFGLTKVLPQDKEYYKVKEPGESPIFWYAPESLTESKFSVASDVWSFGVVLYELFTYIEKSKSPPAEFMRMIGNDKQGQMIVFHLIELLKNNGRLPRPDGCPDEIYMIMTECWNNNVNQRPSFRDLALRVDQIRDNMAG

By IC50 is commonly meant the concentration that inhibits the measured activity by half. As for `Cc1cnc(Nc2ccc(OCCN3CCCC3)cc2)nc1Nc1ccc2sccc2c1` [N4-Benzo[b]thiophen-5-yl-5-methyl-N2-[4-(2-pyrrolidin-1-yl-ethoxy)-phenyl]-pyrimidine-2,4-diamine], the IC50 worked out at 28.5 nM.
Turning to `Cc1cnc(Nc2ccc(N3CCN(C)CC3)cc2)nc1Nc1cccc(S(=O)(=O)N2C(C)CCC2C)c1` (stereo not shown) [N4-[3-(2,5-Dimethyl-pyrrolidine-1-sulfonyl)-phenyl]-5-methyl-N2-[4-(4-methyl-piperazin-1-yl)-phenyl]-pyrimidine-2,4-diamine Hydrochloride], the IC50 was 18.8 nM.
With `CCN(CC)S(=O)(=O)c1cccc(Nc2nc(Nc3ccc(N4CCN(C)CC4)cc3)ncc2C)c1` [N,N-Diethyl-3-{5-methyl-2-(4-(4-methyl-piperazin-1-yl)-phenylamino]-pyrimidin-4-ylamino}-benzenesulfonamide], the half-maximal inhibitory concentration (IC50) was 60.3 nM.
In the case of `Cc1cnc(Nc2ccc(N3CCN(C)CC3)cc2)nc1Nc1cccc(S(=O)(=O)N(C)C)c1` [N,N-Dimethyl-3-{5-methyl-2-[4-(4-methyl-piperazin-1-yl)-phenylamino]-pyrimidin-4-ylamino}-benzenesulfonamide], the half-inhibitory concentration (IC50) was 9.5 nM.
Regarding `CC(=O)Nc1cccc(Nc2nc(Nc3ccc(OC4CCNCC4)cc3)ncc2C)c1C` [N-(2-Methyl-3-(5-methyl-2-[4-(piperidin-4-yloxy)-phenylamino]-pyrimidin-4-ylamino}-phenyl)-acetamide], the IC50 worked out at 146 nM.
The same measure for `CC(=O)Nc1cccc(Nc2nc(Nc3ccc(OC4CCNCC4)cc3)ncc2C)c1` [N-(3-{5-Methyl-2-[4-(piperidin-4-yloxy)-phenylamino]-pyrimidin-4-ylamino}-phenyl)-acetamide]: 137 nM; for `c1ccc(Cc2ccnc(Nc3ccc(OCCN4CCCC4)cc3)n2)cc1` [N-(4-(2-(pyrrolidin-1-yl)ethoxy)phenyl)-4-benzylpyrimidin-2-amine]: 702 nM; for `Cc1cnc(Nc2ccc(N3CCN(C)CC3)cc2)nc1Nc1cccc(S(=O)(=O)NC2CCCCC2)c1` [N-Cyclohexyl-3-{5-methyl-2-[4-(4-methyl-piperazin-1-yl)-phenylamino)-pyrimidin-4-ylamino}-benzenesulfonamide]: 39.4 nM.
For the compound `Cc1cnc(Nc2ccc(N3CCN(C)CC3)cc2)nc1Nc1cccc(S(=O)(=O)NC2CCCC2)c1` [N-Cyclopentyl3-{5-Methyl-2-[4-(4-methyl-piperazin-1-yl)-phenylamino]-pyrimidine-4-ylamino}-benzenesulfonamide Hydrochloride], the IC50 turned out to be 19.8 nM.
`Cc1cnc(Nc2ccc(N3CCN(C)CC3)cc2)nc1Nc1cccc(C(=O)NC(C)C)c1` [N-Isopropyl-3-{5-methyl-2-[4-(4-methyl-piperazin-1-yl)-phenylamino]-pyrimidin-4-ylamino}-benzamide]: the IC50 was found to be 541 nM.
With `Cc1cnc(Nc2ccc(N3CCN(C)CC3)cc2)nc1Nc1cccc(S(=O)(=O)NC(C)C)c1` [N-Isopropyl-3-{5-methyl-2-[4-(4-methyl-piperazin-1-yl)-phenylamino]-pyrimidin-4-ylamino}-benzenesulfonamide] the figure was 11.8 nM; with `CNC(=O)c1cccc(Nc2nc(Nc3ccc(OCCN4CCCC4)cc3)ncc2C)c1` [N-Methyl-3-{5-methyl-2-[4-(2-pyrrolidin-1-yl-ethoxy)-phenylamino]-pyrimidin-4-ylamino}-benzamide], 257 nM; with `CNS(=O)(=O)c1cccc(Nc2nc(Nc3ccc(N4CCN(C)CC4)cc3)ncc2C)c1` [N-Methyl-3-{5-methyl-2-[4-(4-methyl-piperazin-1-yl)-phenylamino]-pyrimidin-4-ylamino}-benzenesulfonamide], 16.1 nM.
Consider `Cc1ccc(Nc2nc(Nc3ccc(OCCN4CCCC4)cc3)ncc2C)cc1S(=O)(=O)NC(C)(C)C` [N-tert-Butyl-2-methyl-5-{5-methyl-2-[4-(2-pyrrolidin-1-yl-ethoxy)-phenylamino]-pyrimidin-4-ylamino}-benzenesulfonamide], for which the 50% inhibitory concentration (IC50) is 44.4 nM.
For `Cc1cnc(Nc2cccc(N3CCN(CCO)CC3)c2)nc1Nc1cccc(S(=O)(=O)NC(C)(C)C)c1` [N-tert-Butyl-3-(2-{3-[4-(2-hydroxy-ethyl)-piperazin-1-yl]-phenylamino}-[5-methyl-pyrimidin-4-ylamino]-benzenesulfonamide Hydrochloride], the IC50 was found to be 40.5 nM.
Consider `Cc1cnc(Nc2ccc(N3CCN(CCO)CC3)cc2)nc1Nc1cccc(S(=O)(=O)NC(C)(C)C)c1` [N-tert-Butyl-3-(2-{4-[4-(2-hydroxy-ethyl)-piperazin-1-yl]-phenylamino)-[5-methyl-pyrimidin-4-ylamino]-benzenesulfonamide Hydrochloride], for which the half-inhibitory concentration (IC50) turned out to be 7.09 nM.
Regarding `Cc1cnc(Nc2cccc(CN3CCOCC3)c2)nc1Nc1cccc(S(=O)(=O)NC(C)(C)C)c1` [N-tert-Butyl-3-(5-methyl-2-(3-morpholin-4-ylmethyl-phenylamino)-pyrimidin-4-ylamino]-benzenesulfonamide], the 50% inhibitory concentration (IC50) was determined as 7.06 nM.
Consider `Cc1cnc(Nc2ccc(OC3CCNCC3)cc2)nc1Nc1cccc(S(=O)(=O)NC(C)(C)C)c1` [N-tert-Butyl-3-(5-methyl-2-[4-(piperidin-4-yloxy)-phenylamino]-pyrimidin-4-ylamino}-benzenesulfonamide], for which the IC50 was 7.3 nM.
In the case of `Cc1cnc(Nc2ccc(-n3ccnc3)cc2)nc1Nc1cccc(S(=O)(=O)NC(C)(C)C)c1` [N-tert-Butyl-3-[2-(4-imidazol-1-yl-phenylamino)-5-methyl-pyrimidin-4-ylamino]-benzenesulfonamide], the half-inhibitory concentration (IC50) amounted to 12.3 nM.
As to `Cc1cnc(Nc2ccc(Cn3ccnc3)cc2)nc1Nc1cccc(S(=O)(=O)NC(C)(C)C)c1` [N-tert-Butyl-3-[2-(4-imidazol-1-ylmethyl-phenylamino)-5-methyl-pyrimidin-4-ylamino]-benzenesulfonamide], the IC50 came to 8.42 nM.
Take `Cc1cnc(Nc2cccc(N3CCNCC3)c2)nc1Nc1cccc(S(=O)(=O)NC(C)(C)C)c1` [N-tert-Butyl-3-[5-methyl-2-(3-piperazin-1-yl-phenylamino)-pyrimidin-4-ylamino]-benzenesulfonamide Hydrochloride]: the IC50 is 18 nM.
Turning to `Cc1cnc(Nc2ccc(-n3cncn3)cc2)nc1Nc1cccc(S(=O)(=O)NC(C)(C)C)c1` [N-tert-Butyl-3-[5-methyl-2-(4-[1,2,4]triazol-1-yl-phenylamino)-pyrimidin-4-ylamino]-benzenesulfonamide], the IC50 turned out to be 41.4 nM.
For `Cc1cnc(Nc2ccc(Cn3cncn3)cc2)nc1Nc1cccc(S(=O)(=O)NC(C)(C)C)c1` [N-tert-Butyl-3-[5-methyl-2-(4-[1,2,4]triazol-1-ylmethyl-phenylamino)-pyrimidin-4-ylamino]-benzenesulfonamide], the IC50 came to 35.4 nM.
Consider `Cc1cnc(Nc2ccc(N3CCOCC3)cc2)nc1Nc1cccc(S(=O)(=O)NC(C)(C)C)c1` [N-tert-Butyl-3-[5-methyl-2-(4-morpholin-4-yl-phenylamino)-pyrimidin-4-ylamino]-benzenesulfonamide], for which the concentration for half-maximal inhibition (IC50) was 12.1 nM.
For the compound `Cc1cnc(Nc2ccc(CN3CCOCC3)cc2)nc1Nc1cccc(S(=O)(=O)NC(C)(C)C)c1` [N-tert-Butyl-3-[5-methyl-2-(4-morpholin-4-ylmethyl-phenylamino)-pyrimidin-4-ylamino]-benzenesulfonamide], the IC50 was found to be 12.5 nM.
